From patent US11985974B2, “Antimicrobial ferulic acid derivatives and uses thereof” (WISCONSIN ALUMNI RESEARCH FOUNDATION, priority 2014, dated 2024)
≈ marks a conversion by molar mass, not a printed value.

Tests used:
S. sclerotiorum = assay: Inhibition of S. sclerotiorum in planta on detached soybean leaves; type: in vivo, Sclerotinia sclerotiorum on soybean (Williams 82); conditions: single aerosol treatment 500 μg/mL before inoculation, up to 120 h postinoculation
Experimental: (§1) To test inhibition in liquid culture, a dose curve of 0, 125, 250, and 500 μg/mL poacic acid in 100 mL potato dextrose broth (n=3) was used. Cultures of S. sclerotiorum strain 1980 were inoculated with 100 μL homogenized mycelia and grown at 25° C. for 48 h. The mycelia in the liquid media were dried and weighed. The growth inhibition of poacic acid on solid agar cultures (potato dextrose agar) was assessed by generating replicate plates (n=3) containing 0, 125, 250, and 500 μg/mL poacic acid. Plates were inoculated with an actively growing plug of S. sclerotiorum and grown at 25° C. The mycelial radial growth after 48 h was measured Inhibition of S. sclerotiorum in planta was tested by inoculating detached soybean leaves of the commercial variety Williams 82 with an agar plug of actively growing S. sclerotiorum mycelia. Leaves were treated one time before inoculation with either an aerosol spray of water with DMSO (control) or a 500 μg/mL solution of poacic acid. Leaves were incubated in a moist environment, and lesion development was monitored up to 120 h postinoculation. […] The growth inhibition of poacic acid was assessed at 0, 500, 1,000, and 1,500 μg/mL in replicate plates (n=3). […] Colony diameter was monitored for each treatment in a time-course experiment. […]

yeast cells (his3Δ) = assay: Mannoprotein and glucan staining (aniline blue, Con A); type: cell-based, Saccharomyces cerevisiae; conditions: 125 μg/mL, 6 h
Experimental: β-1,3-Glucan was stained with aniline blue (016-21302; Wako Chemicals) as described previously (Watanabe et al. 2001) with slight modification. Briefly, log-phase yeast cells (his3Δ) were cultured in YPD with poacic acid (125 μg/mL) at 25° C. Then, cells were collected at 0, 2, 4, and 6 h after treatment and stained with aniline blue without fixation as described previously (Okada et al. 2015). Cells mounted on a glass slide were exposed to UV for 30 s to bleach out poacic acid fluorescence before acquiring images. Staining of chitin or mannoproteins with calcofluor white (F3543; Sigma-Aldrich) or Alexa594-ConA (C11253; Life Technologies), respectively, was performed as described previously (Okada et al. 2015). For cell-free glucan staining, yeast glucan (G0331; Tokyo Chemical Industry) was suspended to 0.125% (wt/vol) poacic acid and observed under a fluorescent microscope using a regular DAPI filter set (Carl Zeiss).

[1] = test system: Alternaria solani (field isolate); assay: Colony growth of A. solani on plates; type: cell-based; conditions: 0, 500, 1,000, 1,500 μg/mL, dose-dependent
Experimental: as §1

β-1,3-glucan synthase = test system: T1, β-1,3-glucan synthase; assay: β-1,3-glucan synthase activity in the membrane fraction; type: biochemical, S. cerevisiae BY4741; conditions: 25° C., 30 min
T1 construct: membrane fraction was prepared from S. cerevisiae BY4741
Experimental: After the membrane fraction was prepared from S. cerevisiae BY4741 as described previously (n=3) (Abe et al. 2001), β-1,3-glucan synthase activity was measured as described previously (n=3) (Inoue et al. 1995) with slight modification. Briefly, 20 μL membrane fraction (˜70 μg total protein) was added to a reaction mixture (final volume of 100 μL) containing 50 mM Tris·HCl, pH 7.5, 10 mM potassium fluoride, 1 mM EDTA, 0.2 mM UDP-Glc (with 89 Bq UDP-[Glucose-14C]; NEC403; PerkinElmer), and different concentrations of poacic acid (1.25, 2.5, 5, 10, 20, 40, 80, 160, or 320 μg/mL). The reaction mixture was incubated at 25° C. for 30 min and stopped by the addition of ethanol. To trap reaction product (β-1,3-glucan polymer), the reaction mixture was filtered through the membrane filter (mixed cellulose esters; 0.2 μm in pore size; ADVANTEC), washed one time with 2 mL distilled water, and dried at room temperature. After addition of scintillation mixture (Econofluor-2; PerkinElmer), radioactivity was measured by a scintillation counter (LSC-6100; Aloka) Inhibition curves and IC50 values were determined using R software (ver. 3.0.1) by sigmoidal curve fitting with the glm function.

Q: Which “lesion development on detached soybean leaves” value (S. sclerotiorum) does the source give for `COc1cc(/C=C/c2cc(/C=C/C(=O)O)cc(OC)c2O)ccc1O` [poacic acid, (E)-4-Hydroxy-3-{2-[(E)-4-hydroxy-3-methoxystyryl]}-5-methoxycinnamic acid] here?
A: markedly reduced lesion development

Q: And the “glucan staining with aniline blue in buds” value (yeast cells (his3Δ))?
A: significantly decreased glucan staining in buds

Q: What about the “mannoprotein staining with Con A” value (yeast cells (his3Δ)) of the same molecule?
A: does not change mannoprotein staining

Q: What about the “colony growth on plates” value [1] of the same molecule?
A: significantly (P<0.01) inhibited

Q: And the “IC50 (β-1,3-glucan synthase activity in vitro)” value (β-1,3-glucan synthase)?
A: 31 µg/mL (≈ 90.6 µM)
